Drawing on patent US11707539B2, “FAP-targeted radiopharmaceuticals and imaging agents, and uses related thereto” (Trustees of Tufts College, priority 2020, dated 2023), this text covers IC50 for 25 molecules.

Type in all cases: biochemical
The target of test [1] is recombinant human fibroblast activation protein (FAP) (Homo sapiens (Human), UniProt Q12884). In words: In vitro IC50 assay, fibroblast activation protein (Example 15). The procedure:
(§1) The purpose of this assay is to determine the IC50 of various inhibitors against recombinant human dipeptidyl peptidase IV (DPPIV), fibroblast activation protein (FAP) or prolyl oligopeptidase (PREP).
(§2) The assays are conducted in the following steps: • 1 Dissolve the compound in DMSO to a final concentration of 100 mM. From this, prepare a 1 mM stock at pH 7.5 in 50 mM Tris, 140 mM NaCl Buffer (FAP)/pH 7.5 in 25 mM Tris, 250 mM NaCl Buffer/pH 8.0 140 mM NaCl Buffer (PREP). • 2. Serial dilute (1:10) the 1 mM compound stocks prepared previously into the appropriate assay buffer (FAP: 50 mM Tris, 140 mM NaCl, pH 7.5/PREP: 25 mM Tris, 0.25 M NaCl, pH 7.5/DPPIV: 25 mM Tris, pH 8.0) to one row of a 96-well plate. • 3. […] Dilute the enzymes into their appropriate assay buffers. The final enzyme concentrations should be 0.1, 1.2, and 0.6 nM for DPPIV, FAP and PREP respectively. Add 180 μL to each well needed in columns 2-10. Column 1 (A,B,C) should be prepared with 200 ul of appropriate assay buffer as control. Column 1 (D,E,F,G,H) should be prepared with 20 ul of appropriate assay buffer and 180 ul enzyme as no inhibitor control. • 5. Add 20 μL of the compound of interest from the dilution plate prepared in step 2 to columns 2-10 of the assay plate where appropriate. Each sample should be tested in triplicate. Allow this to incubate for 10 minutes at room temperature, shaking the plate for the first two minutes. • 6. Add 10 μL of 20× substrate prepared in step 3 to each well and allow this to incubate for 15 minutes at room temperature, shaking the plate for the first two minutes. • 7. Read the fluorescence at λex: 380, λem: 460. (DPcore=[dAla|dSerGly]-[boroPro|Pro-nitrile], XXaa=alpha-amino acid)

For test [2], the target named is recombinant human prolyl oligopeptidase (PREP) (Homo sapiens (Human), UniProt P48147). The test is described as follows: In vitro IC50 assay, prolyl oligopeptidase (Example 15). As to the method:
as §1, §2

For test [3], the target named is recombinant human dipeptidyl peptidase IV (DPPIV) (Homo sapiens (Human), UniProt P27487). The test is described as follows: In vitro IC50 assay, dipeptidyl peptidase IV (Example 15). The note with it: Gly-Pro-AMC, room temperature. As to the method:
as §1, §2

Setting [4] is: Z-Gly-Pro-AMC, room temperature, read-out: FAP IC50.
Where [5] appears, read: Z-Gly-Pro-AMC, room temperature, read-out: PREP IC50.

“And” between values parts separate entries of the source, which are not always exact repeats. Equal entries are not always repeated. Where two headings read alike, the source gives them in different places. Where a SMILES comes first, the peptide text is derived from it. Some results are limits rather than exact numbers.

recombinant human prolyl oligopeptidase (PREP), sequence (P48147 whole entry): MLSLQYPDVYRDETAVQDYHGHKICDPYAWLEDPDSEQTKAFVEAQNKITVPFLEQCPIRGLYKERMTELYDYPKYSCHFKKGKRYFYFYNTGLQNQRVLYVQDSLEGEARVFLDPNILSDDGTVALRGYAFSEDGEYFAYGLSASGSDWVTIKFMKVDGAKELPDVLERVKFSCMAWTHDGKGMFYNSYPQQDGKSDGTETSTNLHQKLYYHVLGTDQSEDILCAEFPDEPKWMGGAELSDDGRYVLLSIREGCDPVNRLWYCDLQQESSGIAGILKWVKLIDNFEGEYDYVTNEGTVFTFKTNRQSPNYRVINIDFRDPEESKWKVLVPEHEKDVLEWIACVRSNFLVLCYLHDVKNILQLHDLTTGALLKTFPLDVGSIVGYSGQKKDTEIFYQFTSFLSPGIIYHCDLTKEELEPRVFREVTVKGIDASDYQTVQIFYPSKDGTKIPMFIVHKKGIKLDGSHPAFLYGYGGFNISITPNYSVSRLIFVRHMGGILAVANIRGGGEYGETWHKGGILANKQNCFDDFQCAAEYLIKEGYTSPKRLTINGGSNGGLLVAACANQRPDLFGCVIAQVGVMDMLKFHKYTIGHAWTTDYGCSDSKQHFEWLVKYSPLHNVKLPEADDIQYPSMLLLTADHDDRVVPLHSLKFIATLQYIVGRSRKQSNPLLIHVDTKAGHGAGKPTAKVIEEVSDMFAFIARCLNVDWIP
recombinant human dipeptidyl peptidase IV (DPPIV), sequence (P27487 whole entry): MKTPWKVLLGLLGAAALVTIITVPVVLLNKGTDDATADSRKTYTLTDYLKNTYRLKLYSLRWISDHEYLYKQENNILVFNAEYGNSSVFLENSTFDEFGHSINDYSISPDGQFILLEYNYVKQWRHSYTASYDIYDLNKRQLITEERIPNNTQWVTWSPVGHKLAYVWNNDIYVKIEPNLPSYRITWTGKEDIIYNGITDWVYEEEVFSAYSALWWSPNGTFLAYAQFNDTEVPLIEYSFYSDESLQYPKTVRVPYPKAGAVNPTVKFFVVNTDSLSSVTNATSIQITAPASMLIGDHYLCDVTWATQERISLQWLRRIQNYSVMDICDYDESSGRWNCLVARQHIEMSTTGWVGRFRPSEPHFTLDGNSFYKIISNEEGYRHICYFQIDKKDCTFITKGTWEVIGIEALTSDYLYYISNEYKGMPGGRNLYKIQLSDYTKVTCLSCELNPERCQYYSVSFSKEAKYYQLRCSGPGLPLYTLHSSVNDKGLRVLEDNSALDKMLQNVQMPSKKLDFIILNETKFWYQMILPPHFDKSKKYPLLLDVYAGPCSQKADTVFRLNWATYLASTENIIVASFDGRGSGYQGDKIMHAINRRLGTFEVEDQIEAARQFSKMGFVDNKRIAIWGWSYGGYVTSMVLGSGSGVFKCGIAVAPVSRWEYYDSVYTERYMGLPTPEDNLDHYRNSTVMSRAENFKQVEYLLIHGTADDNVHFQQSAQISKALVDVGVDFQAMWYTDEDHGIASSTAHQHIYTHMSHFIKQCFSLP
recombinant human fibroblast activation protein (FAP), sequence (Q12884 whole entry): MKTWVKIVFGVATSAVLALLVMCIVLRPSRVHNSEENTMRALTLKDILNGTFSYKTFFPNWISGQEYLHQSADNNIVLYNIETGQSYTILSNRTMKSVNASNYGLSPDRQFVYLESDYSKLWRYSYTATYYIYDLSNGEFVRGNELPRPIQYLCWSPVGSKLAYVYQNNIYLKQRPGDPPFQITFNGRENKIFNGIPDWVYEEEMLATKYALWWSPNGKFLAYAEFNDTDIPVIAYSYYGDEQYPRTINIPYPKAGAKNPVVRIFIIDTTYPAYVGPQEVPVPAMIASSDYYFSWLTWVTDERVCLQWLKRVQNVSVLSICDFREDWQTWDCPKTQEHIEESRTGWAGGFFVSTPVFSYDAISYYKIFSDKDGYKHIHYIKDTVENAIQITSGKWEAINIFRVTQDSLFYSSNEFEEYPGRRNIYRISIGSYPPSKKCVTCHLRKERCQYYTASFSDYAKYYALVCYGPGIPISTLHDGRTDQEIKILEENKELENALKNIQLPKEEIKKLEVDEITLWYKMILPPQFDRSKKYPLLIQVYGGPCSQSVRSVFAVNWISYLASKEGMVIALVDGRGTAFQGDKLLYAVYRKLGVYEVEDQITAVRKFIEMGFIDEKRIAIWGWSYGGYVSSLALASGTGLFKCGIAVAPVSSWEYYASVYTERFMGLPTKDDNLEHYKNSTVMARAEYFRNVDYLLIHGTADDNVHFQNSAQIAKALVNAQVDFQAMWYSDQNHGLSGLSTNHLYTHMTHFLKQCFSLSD

Consider `CC(C)[C@H](NC(=O)CNC(=O)CNC(=O)CN1CCN(CC(=O)O)CCN(CC(=O)O)CCN(CC(=O)O)CC1)C(=O)N[C@H](C)C(=O)N1CCCC1B1OC(=O)CN(C)CC(=O)O1` (stereo partly drawn) [Compound 6522M, DOTA-Gly-Gly-Val-D-alaboroPro-MIDA] (HELM PEPTIDE1{[O=C(O)CN1CCN(CC(=O)O)CCN(CC(=O)[*:2])CCN(CC(=O)O)CC1].G.G.V.[dA].[CN1CC(=O)OB(C2CCCN2[*:1])OC(=O)C1]}$$$$V2.0), for which the IC50 in test [1] (setting [4]) is 280 nM.

For `CC(C)[C@H](NC(=O)CNC(=O)CNC(=O)CN1CCN2CCN3CCN(CC1)CC(=O)[O][Ga]([O]C(=O)C2)[O]C(=O)C3)C(=O)N[C@H](C)C(=O)N1CCC[C@H]1B(O)O` [Compound 6522GA-02, DOTA(Ga)-Gly-Gly-Val-D-alaboroPro] (HELM PEPTIDE1{[O=C1CN2CCN3CCN(CC(=O)[*:2])CCN(CC2)CC(=O)[O][Ga]([O]1)[O]C(=O)C3].G.G.V.[dA].[OB(O)[C@@H]1CCCN1[*:1]]}$$$$V2.0), the IC50 in test [1] (setting [4]) was 575 nM; in test [2] (setting [5]) it was 19000 nM; in test [3], above 100000 nM.

On to `C[C@@H](NC(=O)c1ccc(NNC(=O)CCCNC(=O)CN2CCN3CCN4CCN(CC2)CC(=O)[O][Lu]([O]C(=O)C3)[O]C(=O)C4)nc1)C(=O)N1CCC[C@H]1B(O)O` [Compound 6609LU], for which the results for the IC50 in test [1] (setting [4]) and in test [2] (setting [5]) were 1 nM and 60 nM, respectively.

Take `C[C@@H](NC(=O)CN1CCN(CC(=O)O)CCN(CC(=O)O)CCN(CC(=O)O)CC1)C(=O)N1CCC[C@H]1B(O)O` [Compound 4535, DOTA-D-ala-boroPro]: the IC50 in test [1] was 33 nM; in test [2], 10000 nM; in test [2] (setting [5]), above 10000 nM.

As for `C[C@@H](NC(=O)c1ccc(NNC(=O)CN2CCN(CC(=O)O)CCN(CC(=O)O)CCN(CC(=O)O)CC2)nc1)C(=O)N1CCC[C@H]1B(O)O` [Compound 4536], the IC50 in test [2] (setting [5]) stood at 750 nM.

Consider `CC(C)[C@H](NC(=O)CNC(=O)CC[C@H]1C(=O)[O][Lu]23[O]C(=O)CN4CCN(CCN1CCN(CC4)CC(=O)[O]2)CC(=O)[O]3)C(=O)N[C@H](C)C(=O)N1CCC[C@H]1B(O)O` [Compound 6795LLU, (S)-DOTAGA-Gly-Val-Dala-boroPro (6795L-Lu Complex)], for which the IC50 came out at 20.1 nM in test [1] and 6390 nM in test [2].

As to `C[C@@H](NC(=O)c1ccc(NNC(=O)CCCCCC2=C(/C=C/C3=C(Oc4ccc(S(=O)(=O)O)cc4)C(=C/C=C4/N(CCCCS(=O)(=O)O)c5ccc(S(=O)(=O)O)cc5C4(C)C)/CCC3)C(C)(C)c3cc(S(=O)(=O)O)ccc32)nc1)C(=O)N1CCC[C@H]1B(O)O` [Compound 4613B, IRDye800CW-3860], the IC50 is 8.8 nM and 10 nM in test [1] (setting [4]); 390 nM in test [2] (setting [5]); above 100000 nM in test [3].

Regarding `C[C@@H](NC(=O)c1ccc(NNC(=O)CCCCCNC(=O)CN2CCN3CCN4CCN(CC2)CC(=O)[O][Ga]([O]C(=O)C3)[O]C(=O)C4)cc1)C(=O)N1CCC[C@H]1B(O)O` [Compound 6486GA], the IC50 in test [1] (setting [4]) was 81 nM; in test [2] (setting [5]) it was 4700 nM; in test [3], above 100000 nM.

`CC(C)[C@H](NC(=O)CNC(=O)CNC(=O)CN1CCN2CCN3CCN(CC1)CC(=O)[O][Lu]([O]C(=O)C2)[O]C(=O)C3)C(=O)N[C@H](C)C(=O)N1CCC[C@H]1B(O)O` [Compound 6522LU, DOTA(Lu)-Gly-Gly-Val-D-ala-boroPro] (HELM PEPTIDE1{[O=C1CN2CCN3CCN(CC(=O)[*:2])CCN(CC2)CC(=O)[O][Lu]([O]1)[O]C(=O)C3].G.G.V.[dA].[OB(O)[C@@H]1CCCN1[*:1]]}$$$$V2.0): the IC50 in test [1] (setting [4]) is 26 nM; in test [2] (setting [5]), 19000 nM; in test [3], above 100000 nM.

As to `CC(C)[C@H](NC(=O)CN1CCN2CCN(CC(=O)O)CCN(CC1)CC(=O)[O][Cu][O]C(=O)C2)C(=O)N[C@H](C)C(=O)N1CCC[C@H]1B(O)O` (stereo in doubt) [Compound 6508CU, DOTA[(Cu(II)]-Val-D-Ala-boroPro], the IC50 in test [1] (setting [4]) was determined as 26.2 nM.

Regarding `CC(C)[C@H](NC(=O)CNC(=O)CC[C@H](C(=O)O)N1CCN(CC(=O)O)CCN(CC(=O)O)CCN(CC(=O)O)CC1)C(=O)N[C@H](C)C(=O)N1CCC[C@H]1B(O)O` [Compound 6795D, (R)-DOTAGA-Gly-Val-D-ala-boroPro], in test [3], the IC50 was above 100000 nM.

In the case of `C[C@@H](NC(=O)c1ccc(NNC(=O)CCCNC(=O)CN2CCN3CCN4CCN(CC2)CC(=O)[O][Ga]([O]C(=O)C3)[O]C(=O)C4)cc1)C(=O)N1CCC[C@H]1B(O)O` [Compound 6489GA], the IC50 in test [1] (setting [4]) was 39 nM; in test [2] (setting [5]) it was 3400 nM; in test [3], above 100000 nM.

On to `C[C@@H](NC(=O)c1ccc(NNC(=O)CCCCCC2=C(/C=C/C3=C(Oc4ccc(S(=O)(=O)O)cc4)C(=C/C=C4/N(CCCCS(=O)(=O)O)c5ccc(S(=O)(=O)O)cc5C4(C)C)/CCC3)C(C)(C)c3cc(S(=O)(=O)O)ccc32)cc1)C(=O)N1CCC[C@H]1B(O)O` [Compound 4613C, IRDye 800CW-3860B], for which the results for the 50% inhibitory concentration (IC50) in test [1] (setting [4]) and in test [2] (setting [5]) were 1.7 nM and 610 nM, respectively.

As to `C[C@@H](NC(=O)c1ccc(NNC(=O)CN2CCN3CCN4CCN(CC2)CC(=O)[O][Ga]([O]C(=O)C3)[O]C(=O)C4)cc1)C(=O)N1CCC[C@H]1B(O)O` [Compound 5183GA], the IC50 in test [1] (setting [4]) turned out to be 46.1 nM.

For `C[C@@H](NC(=O)[C@H](CO)NC(=O)CN1CCN(CC(=O)O)CCN(CC(=O)O)CCN(CC(=O)O)CC1)C(=O)N1CCC[C@H]1B(O)O` [Compound 6509, DOTA-Ser-D-Ala-boroPro], the IC50 in test [1] (setting [4]) was 186 nM.

In the case of `C[C@@H](NC(=O)c1ccc(NC(=O)CCCCNC(=O)CN2CCN3CCN4CCN(CC2)CC(=O)[O][Lu]([O]C(=O)C3)[O]C(=O)C4)cc1)C(=O)N1CCC[C@H]1B(O)O` [Compound 6590LU], the IC50 in test [1] (setting [4]) worked out at 0.4 nM.

As for `C[C@H](NC(=O)CN1CCN2CCN3CCN(CC1)CC(=O)[O][Gd]([O]C(=O)C2)[O]C(=O)C3)C(=O)N[C@H](C)C(=O)N1CCC[C@H]1B(O)O` [Compound 6511Gd, DOTA[(Gd(III)]-Ala-D-Ala-boroPro], the IC50 in test [1] (setting [4]) came to 428 nM.

As for `CC(C)[C@H](NC(=O)CNC(=O)CNC(=O)CNC(=O)CCC(C(=O)O)N1CCN(CC(=O)O)CCN(CC(=O)O)CCN(CC(=O)O)CC1)C(=O)N[C@H](C)C(=O)N1CCC[C@H]1B(O)O` (mixture of isomers) [Compound 6808, (R/S)-DOTAGA-(Gly)3-Val-Dala-boroPro], the IC50 in test [1] was found to be 11.5 nM.

Regarding `C[C@@H](NC(=O)c1ccc(NNC(=O)CCCCCNC(=O)CN2CCN3CCN4CCN(CC2)CC(=O)[O][Lu]([O]C(=O)C3)[O]C(=O)C4)nc1)C(=O)N1CCC[C@H]1B(O)O` [Compound 6958LU], the IC50 in test [1] (setting [4]) is 1.1 nM; in test [2] (setting [5]) it was 155 nM.

With `CC(C)[C@H](NC(=O)CNC(=O)CNC(=O)CNC(=O)CNC(=O)CN1CCN(CC(=O)O)CCN(CC(=O)O)CCN(CC(=O)O)CC1)C(=O)N[C@H](C)C(=O)N1CCC[C@H]1B(O)O` [Compound 6839, DOTA-(Gly)4-Val-D-ala-boroPro] (HELM PEPTIDE1{[O=C(O)CN1CCN(CC(=O)O)CCN(CC(=O)[*:2])CCN(CC(=O)O)CC1].G.G.G.G.V.[dA].[OB(O)[C@@H]1CCCN1[*:1]]}$$$$V2.0), in test [1] (setting [4]), the IC50 worked out at 21 nM.

`C[C@@H](NC(=O)c1ccc(NNC(=O)CN2CCN3CCN4CCN(CC2)CC(=O)[O][Gd]([O]C(=O)C3)[O]C(=O)C4)nc1)C(=O)N1CCC[C@H]1B(O)O` [Compound 4536GD]: the 50% inhibitory concentration (IC50) in test [2] (setting [5]) and in test [3] was above 100000 nM in each case.

For `C[C@@H](NC(=O)CN1CCN2CCN3CCN(CC1)CC(=O)[O][Gd]([O]C(=O)C2)[O]C(=O)C3)C(=O)N1CCC[C@H]1B(O)O` [Compound 4535GD, DOTA[(Gd(III)]-D-alaboroPro], the IC50 in test [1] (setting [4]) was 760 nM; in test [2] (setting [5]), above 10000 nM.

Take `C[C@@H](NC(=O)c1ccc(NN)nc1)C(=O)N1CCC[C@H]1B(O)O` [Compound 3860, N-(6-hydrazinylnicotincarbonyl)-D-AlaboroPro]: the IC50 in test [3] is above 100000 nM.

Regarding `CC(C)[C@H](NC(=O)CNC(=O)CC[C@@H]1C(=O)[O][Lu]23[O]C(=O)CN4CCN(CCN1CCN(CC4)CC(=O)[O]2)CC(=O)[O]3)C(=O)N[C@H](C)C(=O)N1CCC[C@H]1B(O)O` [Compound 6795DLU, (R)-DOTAGA(Lu)-Gly-Val-Dala-boroPro], in test [3], the IC50 is above 100000 nM.

Take “(R)-DOTAGA(Ga)-(Gly)3-Val-Dala-boroPro [Compound 6808DGA]”: the half-maximal inhibitory concentration (IC50) in test [1] (setting [4]) is 89 nM.
